# From article PMC4729491, “The Cellular Thioredoxin-1/Thioredoxin Reductase-1 Driven Oxidoreduction Represents a Chemotherapeutic Target for HIV-1 Entry Inhibition” (PLoS ONE, 2016)
# Counter-ions that a name gives are not always drawn. Like-named read-outs stand apart in the source and are kept apart here. Square brackets hold non-standard residues; d marks the D form. Peptide text beside a SMILES is read from it. * marks the point of attachment. Sta = CC(C)C[C@H](N)[C@@H](O)CC(=O)O; Isovaleryl = CC(C)CC(=O)*
# Key:
# HIV-1(IIIB) [1] = assay: microbe, parasite or virus in culture; format: cell-based
# Protocol: (§1) To study the antiviral activity in transformed cells, CEM cells were suspended in fresh culture medium and infected with HIV-1(IIIB) or HIV-2(ROD) at 100 x CCID50 (cell culture infective dose 50%) per ml of cell suspension. Infected cell suspension (100 μl; 3 x 10^5 cells/ml) was transferred to a 96-well microplate, mixed with 100 μl of the appropriate dilutions of compounds, and further incubated at 37°C. After 4 days, giant cell formation was recorded microscopically and the number of giant cells was estimated microscopically as percentage of the number of giant cells present in the non-treated virus-infected cell cultures.
# HIV-2(ROD) = assay: Inhibition of HIV-2(ROD)-induced giant cell formation in CEM cell cultures; format: cell-based
# Protocol: as §1
# CEM cells = assay: Cytostatic activity assay, CEM cells; format: cell-based; details: Homo sapiens, CCRF-CEM, 72 h; inhibition of cell proliferation by 50%, three-day drug-exposed; mean ± SD
# Protocol: (§2) The cytostatic activity assay using transformed cell lines was also performed in 96-well microtiter plates. 5–7.5 x 10^4 human CD4^+ T-lymphocyte CEM or human cervix carcinoma HeLa cells and a given amount of the test compounds were added to each well. The cells were allowed to proliferate for 72 h (96 h for HeLa) at 37°C in a humidified CO2-controlled atmosphere. At the end of the incubation period, the cells were counted in a Coulter counter (type ZM, Coulter Electronics, Analis, Ghent, Belgium).
# HeLa cells = assay: Cytostatic activity assay, HeLa cells; format: cell-based; details: Homo sapiens, 72 h, read-out: IC50 HeLa
# Protocol: as §2
# HIV-1(IIIB) [2] = assay: Antiviral activity in PHA-stimulated PBMCs (p24 ELISA), HIV-1(IIIB); format: cell-based; details: Human immunodeficiency virus 1, IIIB, PBMC, read-out: EC50 HIV-1 (IIIB)
# Protocol: (§3) To test the antiviral activity in fresh, PHA-stimulated PBMCs, an experiment was performed as previously described. Briefly, the cells were preincubated with HIV-1(IIIB), HIV-1(BaL) or HIV-1(HE) for 1 h at 37°C, using a viral load of 1000 x CCID50 per ml. Then, cell suspensions containing virus and 2 x 10^5 PBMCs were seeded in a 96-well microtiter plate and a serial dilution of compound was added, in a total volume of 200 μl. After 4 days, the cells were passaged and fresh culture medium, containing IL-2 and compound, was added. Three days later, cellular supernatants were harvested and viral replication in the presence of the compounds was quantified using a p24 enzyme-linked immunosorbent assay (ELISA) (Perkin Elmer, Brussels, Belgium). The half maximal effective concentration (EC50) was defined as the compound concentration that is required to block viral replication by 50%.
# HIV-1(BaL) = assay: Antiviral activity in PHA-stimulated PBMCs (p24 ELISA), HIV-1(BaL); format: cell-based; details: Human immunodeficiency virus 1, BAL, PBMC
# Protocol: as §3
# HIV-1(HE) = assay: Antiviral activity in PHA-stimulated PBMCs (p24 ELISA), HIV-1(HE); format: cell-based; details: Human immunodeficiency virus 1, PBMC, read-out: EC50 HIV-1 (HE)
# Protocol: as §3
# PHA-stimulated PBMCs = assay: Toxicity in PHA-stimulated PBMCs (trypan blue cell counting); format: cell-based, human; details: Homo sapiens, PBMC, 168 h, read-out: IC50 PBMC
# Protocol: A similar experiment was performed to study the toxicity of the compounds in fresh, PHA-stimulated, PBMCs. Mock-infected PBMCs (2 x 10^5 cells) were exposed to a serial dilution of compound, in a total volume of 200 μl. Cells were passaged after 4 days. Cell survival and proliferation was assessed at day 7 using trypan blue-based cell counting with the Countess Automated Cell Counter (Invitrogen, Ghent, Belgium). The IC50 was defined as the concentration of the compound that inhibited cell proliferation by 50%.
# [3] = test system: HuT-78/HIV-1 and Sup-T1 cells; assay: cells; format: cell-based; details: read-out: IC50 inhibition of syncytia formation
# Protocol: Persistently infected HuT-78/HIV-1 cells were thoroughly washed to eliminate free virions. Next, 1 x 10^5 HuT-78/HIV-1 cells were co-cultivated with 1 x 10^5 Sup-T1 cells in 96-well plates (200 μl/well) during 20 h at 37°C, in the presence or absence of a serial dilution of compound. Afterwards, the formation of syncytia was evaluated microscopically. The EC50 was defined as the compound concentration required to suppress syncytia formation by 50%.
# HIV-1 = assay: Infectivity (TZM-bl) of virus particles produced by ACH-2 cells in presence of compound; format: cell-based; details: compound added at 1/100 of concentration in viral growth culture
# Protocol: To measure the infectivity of particles produced in the presence of the compounds, washed persistently HIV-1-infected ACH-2 cells (1 x 10^6 cells/ml) were cultured with 100 nM PMA in the presence of the indicated concentration of compounds. After 3 days, the p24 content of the clarified supernatant (see virus expression) was measured. The cell supernatant was then used for an infectivity test (see infectivity assay) without the further addition of any compound to the cultures. The final dilution of the ACH-2 supernatant in the infectivity test was 1:100. A control experiment was performed, in which virus particles produced without the addition of compound, were used for the infectivity test. Additionally, the same amount of compound that could have been carried over with the virus containing supernatant in the original experiment was added to the infectivity test (final concentration: 1/100 of the indicated amount in the viral growth culture).
# [4] = previously known structural properties ref 20-22; cited from earlier work
# HIV-1 protease [5] = target: T1, HIV-1 protease (Human immunodeficiency virus type 1 group M subtype B, UniProt P04585); assay: HIV-1 protease inhibition (SensoLyte 520 kit); format: biochemical; details: 25 μM
# T1 construct: the virus-encoded protease; endogenous in cells; host or cells: persistently infected HuT-78/HIV-1(IIIB) cells and released virus particles
# Protocol: The ability of the compounds to inhibit the activity of recombinant HIV-1 protease was determined by a SensoLyte 520 HIV-1 protease assay kit (AnaSpec Inc., Fremont, CA) according to the manufacturer’s instructions. Compounds (10 μl of a 250 μM, solution, giving a final concentration of 25 μM in the reaction mixture) and 40 μl HIV-1 protease (100 ng/well; AnaSpec Inc.) were added to a dark-bottom 96-well plate. Pepstatin A was included as an inhibitor control. The plate as well as the HIV-1 protease substrate solution (provided) were incubated for 15 minutes at 37°C and 50 μl protease substrate was added to all wells. The fluorescence was measured at Ex/Em = 490 nm/520 nm with a Varioskan Flash (Thermo Electron Corporation, Schwerte, Germany).
# HIV-1(IIIB) [6] = format: cell-based; details: MT-4 cells
# Protocol: Two time-of-drug-addition (TOA) experiments were performed and adopted from previously reported methods. Briefly, MT-4 cells were infected with HIV-1(IIIB) at a multiplicity of infection of 0.5. Following a 1 hour adsorption period, cells were washed, distributed in a 96-well tray at 100,000 cells per 200 μl per well and incubated at 37°C.
# For the first experiment, test compounds were added to the infected cell cultures at different time points (i.e. 0, 1, 2, 3, 4, 5, 6, 7, 8, 9, 24, and 25 h) after the start of infection.
# In a second experiment, the resolution of the assay was increased by evaluating early time points in more detail. Therefore, the test compounds were added to the infected cell cultures at the following time points after the start of infection: 0, 15, 30, 45, 100 and 180 min; and 24 as well as 25 h.
# Product added at time points 0, 15, 30 and 45 min was present at the start of the viral infection and washed away after 1 hour. After washing, fresh product was added to maintain viral suppression throughout the remaining of the experiment.
# HIV-1 production was determined at 31 h post infection via a p24 ELISA (Perkin Elmer, Brussels, Belgium).
# HIV-1 protease [7] = target: T1, HIV-1 protease; assay: p55 cleavage in virus particles from HuT-78/HIV-1 cells (Western blot); format: cell-based; details: 43 h, AZT 3.7 μM, ritonavir 2.8 μM, TE-10 1 and 20 μM
# Protocol: In order to confirm the inhibitory effect of TE-10, an additional assay was performed to study the inhibition of the HIV-1 protease by TE-10. Therefore, 2 x 10^5 persistently infected HuT-78/HIV-1 cells were washed thoroughly and seeded in 48-well plates, in the presence or absence of compound. As reference compounds, the RT inhibitor AZT (3.7 μM) and the protease inhibitor ritonavir (2.8 μM) were used, as negative and positive controls, respectively. TE-10 was used at 1 μM and 20 μM. After 43 h of incubation at 37°C, virus-containing cell culture supernatants were harvested and the cells were removed by centrifugation (10 min at ± 900 x g). Then, virus was precipitated from the cell supernatant by centrifugation at ± 3.5 x 10^4 x g for at least 2 h. The viruses were resuspended in PBS and lysed with Triton-X100 (Sigma-Aldrich, Diegem, Belgium). These viral lysates were then subjected to SDS-PAGE and subsequent Western blotting to detect the presence of p24 and its precursor p55, using an anti-p24 antibody (AB9044; final concentration 2.4 μg/ml).
compound,measurement,setting,value
"CCCC[Te]CCCS(=O)(=O)O [TE-20, 3-(butyltelluro)propanesulfonic acid sodium salt]",Ratio IC50/EC50 HIV-1 (CEM),HIV-1(IIIB) [1]; CEM cells,38
same,EC50,"HIV-1(IIIB) [1]; Human immunodeficiency virus 1, IIIB, CCRF-CEM, read-out: EC50 HIV-1 (IIIB)",2.7 ± 2.6 µM
same,Ratio IC50/EC50 HIV-2 (CEM),HIV-2(ROD); CEM cells,36
same,EC50,"HIV-2(ROD); Human immunodeficiency virus 2, CCRF-CEM, read-out: EC50 HIV-2 (ROD)",2.9 ± 1.3 µM
same,IC50,CEM cells,103 ± 27 µM
same,IC50,HeLa cells,101 ± 3 µM
same,EC50,HIV-1(IIIB) [2],18 ± 12 µM
same,EC50,HIV-1(BaL); read-out: EC50 HIV-1 (BAL),≥ 25 µM
same,inhibition at 25 µM,HIV-1(BaL); read-out: inhibition at indicated concentration,30 to 50%
same,EC50,HIV-1(HE),11 ± 9 µM
same,IC50,PHA-stimulated PBMCs,75 ± 53 µM
same,IC50,"[3]; Human immunodeficiency virus 1, SUP-T1, 24 h",> 250 µM
same,carry-over control: residual compound as cause of decreased infectivity,HIV-1,could not be explained by the presence of residual compound
same,Hydrophobicity,[4],Hydrophilic
"CC(C)CC(=O)N[C@H](C(=O)N[C@H](C(=O)N[C@@H](CC(C)C)[C@@H](O)CC(=O)N[C@@H](C)C(=O)N[C@@H](CC(C)C)[C@@H](O)CC(=O)O)C(C)C)C(C)C [pepstatin A, reference compound] (Isovaleryl-VV[Sta]A[Sta]-OH)",inhibition of protease activity,HIV-1 protease [5],pronounced inhibitory activity
CC(C)c1nc(CN(C)C(=O)N[C@H](C(=O)N[C@@H](Cc2ccccc2)C[C@H](O)[C@H](Cc2ccccc2)NC(=O)OCc2cncs2)C(C)C)cs1 [ritonavir],time after virus infection that addition could be delayed without losing inhibitory activity,"HIV-1(IIIB) [6]; p24 ELISA at 31 h, AZT 1.9 μM, ritonavir 277 nM",≥ 8 h
same,p55 cleavage in viral particles (Western blot),HIV-1 protease [7],blocks this cleavage
dextran sulphate [DS-8000],time post-infection at which activity is lost,"HIV-1(IIIB) [6]; second TOA experiment, DS-8000 12.5 μM, AMD3100 625 nM",30 to 45 min
enfuvirtide,IC50,"[3]; cocultures of HuT-78/HIV-1 and Sup-T1 cells, ~24 hours",0.275 ± 0.15 µM
